Read-outs that look alike come from different tables or passages of the source.
Assay: Clinical pharmacokinetics, plasma LC-MS/MS after single oral dose of AP capsules
Assay type: in vivo, human (healthy volunteers)
Conditions: for concentration at 4 h / concentration at 5 h / concentration at 6 h / concentration at 8 h / concentration at 10 h / concentration at 12 h / concentration at 24 h / concentration at 0 h / concentration at 0.5 h / concentration at 1 h / concentration at 1.5 h / concentration at 2 h / concentration at 2.5 h / concentration at 3 h / concentration at 3.5 h: oral, 2000 mg; for concentration at 4 h / concentration at 5 h / concentration at 6 h / concentration at 8 h / concentration at 10 h / concentration at 12 h / concentration at 24 h / concentration at 0 h / concentration at 0.5 h / concentration at 1 h / concentration at 1.5 h / concentration at 2 h / concentration at 2.5 h / concentration at 3 h / concentration at 3.5 h / Mean concentration: 2000 mg AP capsules
Procedure: The protocol was published (Tee et al. [2022]).
Seven calibrators ranging from 1, 2, 5,10, 20, 50, and 100 ng mL^−1 were prepared. Frozen plasma was thawed, vortexed-mixes, and processed via protein precipitation: 50 µL plasma plus 100 µL 0.01% ammonia in methanol were vortexed (20 s), centrifuged (14800 rpm, 5 min) and […] supernatant was transferred to 2 mL vials with inserts. LC–MS/MS injection volume: 10 µL. The separation used a Phenomenex Gemini-NX C18 column (150 × 2.1 mm, 5 μm) with 0.01% ammonia (A) and acetonitrile/methanol (1:1, B) as mobile phases (0.30 mL min^-1). The gradient program: 40% B (0 min), linear increase to 95% B (3 min), hold to 5 min, sharp decrease to 10% B (5.01 min), hold to 7 min, return to 40% B (7.01 min), and re-equilibration to 10 min. Mass detection employed an LCMS-8060NX triple quadrupole with heated ESI in negative mode, monitoring specific MRM transitions: andrographolide (349.3 → 331.2/287.1), 14-deoxyandrographolide (331.2 → 108.0/301.1), and neoandrographolide (479.1 → 317.4/161.1).
Pharmacokinetic parameters were determined from plasma samples (5 subjects, 15 time points) analyzed via LC–MS/MS (Shimadzu 8060NX). […] Specific MRM transitions for andrographolide, 14-deoxyandrographolide, and neoandrographolide in plasma samples of subjects are illustrated in Figure S3. […] The dose-dependent concentration–time curves, pharmacokinetics profiles (Fig. 2a, b and c) and comprehensive individual PK data (Table S4) provide a foundation for developing personalized AP dosing regimens, supporting its precision medicine potential.

[1] = human, plasma, 2000 mg AP capsules oral, fasting, n=5

C=C1CC[C@@H]2[C@](C)(CO)[C@H](O)CC[C@@]2(C)[C@@H]1C/C=C1/C(=O)OC[C@H]1O [andrographolide]
concentration at 4 h (human, plasma, S4, 4.00 h, read-out: Plasma concentration): 0 ng/mL | concentration at 5 h (human, plasma, S4, 5.00 h, read-out: Plasma concentration): 0 ng/mL | concentration at 6 h (human, plasma, S4, 6.00 h, read-out: Plasma concentration): 0 ng/mL | concentration at 8 h (human, plasma, S4, 8.00 h, read-out: Plasma concentration): 0 ng/mL | concentration at 10 h (human, plasma, S4, 10.00 h, read-out: Plasma concentration): 0 ng/mL | concentration at 12 h (human, plasma, S4, 12.00 h, read-out: Plasma concentration): 0 ng/mL | concentration at 24 h (human, plasma, S4, 24.00 h, read-out: Plasma concentration): 0 ng/mL | concentration at 0 h (human, plasma, S5, 0.00 h, read-out: Plasma concentration): 0 ng/mL | concentration at 0.5 h (human, plasma, S5, 0.50 h, read-out: Plasma concentration): 0 ng/mL | concentration at 1 h (human, plasma, S5, 1.00 h, read-out: Plasma concentration): 0 ng/mL | concentration at 1.5 h (human, plasma, S5, 1.50 h, read-out: Plasma concentration): 2.52 ng/mL | concentration at 2 h (human, plasma, S5, 2.00 h, read-out: Plasma concentration): 3.77 ng/mL | concentration at 2.5 h (human, plasma, S5, 2.50 h, read-out: Plasma concentration): 3.17 ng/mL | concentration at 3 h (human, plasma, S5, 3.00 h, read-out: Plasma concentration): 2.38 ng/mL | concentration at 3.5 h (human, plasma, S5, 3.50 h, read-out: Plasma concentration): 1.59 ng/mL | concentration at 4 h (human, plasma, S5, 4.00 h, read-out: Plasma concentration): 0.54 ng/mL | concentration at 5 h (human, plasma, S5, 5.00 h, read-out: Plasma concentration): 1.62 ng/mL | concentration at 6 h (human, plasma, S5, 6.00 h, read-out: Plasma concentration): 1.12 ng/mL | concentration at 8 h (human, plasma, S5, 8.00 h, read-out: Plasma concentration): 0 ng/mL | concentration at 10 h (human, plasma, S5, 10.00 h, read-out: Plasma concentration): 0 ng/mL | concentration at 12 h (human, plasma, S5, 12.00 h, read-out: Plasma concentration): 0 ng/mL | concentration at 24 h (human, plasma, S5, 24.00 h, read-out: Plasma concentration): 0 ng/mL | concentration at 0 h (human, plasma, mean n=5, 0.00 h, read-out: Mean concentration): 0 ng/mL | concentration at 0.5 h (human, plasma, mean n=5, 0.50 h, read-out: Mean concentration): 8.62 ng/mL | concentration at 1 h (human, plasma, mean n=5, 1.00 h, read-out: Mean concentration): 7.7 ng/mL | concentration at 1.5 h (human, plasma, mean n=5, 1.50 h, read-out: Mean concentration): 10.2 ng/mL | concentration at 2 h (human, plasma, mean n=5, 2.00 h, read-out: Mean concentration): 6.21 ng/mL | concentration at 2.5 h (human, plasma, mean n=5, 2.50 h, read-out: Mean concentration): 3.4 ng/mL | concentration at 3 h (human, plasma, mean n=5, 3.00 h, read-out: Mean concentration): 3.02 ng/mL | concentration at 3.5 h (human, plasma, mean n=5, 3.50 h, read-out: Mean concentration): 1.3 ng/mL | concentration at 4 h (human, plasma, mean n=5, 4.00 h, read-out: Mean concentration): 0.11 ng/mL | concentration at 5 h (human, plasma, mean n=5, 5.00 h, read-out: Mean concentration): 0.32 ng/mL | concentration at 6 h (human, plasma, mean n=5, 6.00 h, read-out: Mean concentration): 0.22 ng/mL | concentration at 8 h (human, plasma, mean n=5, 8.00 h, read-out: Mean concentration): 0 ng/mL | concentration at 10 h (human, plasma, mean n=5, 10.00 h, read-out: Mean concentration): 0 ng/mL | concentration at 12 h (human, plasma, mean n=5, 12.00 h, read-out: Mean concentration): 0 ng/mL | concentration at 24 h (human, plasma, mean n=5, 24.00 h, read-out: Mean concentration): 0 ng/mL | AUC(0-inf) [1]: 20.9 ng·h/mL | AUC(0-t) [1]: 20.7 ng·h/mL | Cmax [1]: 10.2 ng/mL | Tmax [1]: 1.5 h | half-life [1]: 0.72 h | Mean concentration (mean n=5, 0.00 h): 0 ng/mL | Mean concentration (mean n=5, 0.50 h): 8.622 ng/mL | Mean concentration (mean n=5, 1.00 h): 7.6996 ng/mL | Mean concentration (mean n=5, 1.50 h): 10.145 ng/mL | Mean concentration (mean n=5, 2.00 h): 6.2104 ng/mL | Mean concentration (mean n=5, 2.50 h): 3.3999 ng/mL | Mean concentration (mean n=5, 3.00 h): 3.0233 ng/mL | Mean concentration (mean n=5, 3.50 h): 1.2987 ng/mL | Mean concentration (mean n=5, 4.00 h): 0.1073 ng/mL | Mean concentration (mean n=5, 5.00 h): 0.3249 ng/mL | Mean concentration (mean n=5, 6.00 h): 0.2247 ng/mL | Mean concentration (mean n=5, 8.00 h): 0 ng/mL | Mean concentration (mean n=5, 10.00 h): 0 ng/mL | Mean concentration (mean n=5, 12.00 h): 0 ng/mL | Mean concentration (mean n=5, 24.00 h): 0 ng/mL

Reference: publication PMC12935787, “Clinical pharmacokinetics and pharmacometabolomics of Andrographis paniculata capsules: Bridging drug disposition and metabolic response to precision medicine” (Naunyn-Schmiedeberg's Archives of Pharmacology, 2025)
